Reference: paper PMC4910235, “Selenophene and thiophene-core estrogen receptor ligands that inhibit motility and development of parasitic stages of Haemonchus contortus” (Parasites & Vectors, 2016)
Where two headings read alike, the source gives them in different places.

Columns and labels:
[1] = system: exsheathed third-stage larvae (xL3s) of H. contortus; assay: xL3 motility assay (whole-organism screen and dose-response); format: cell-based, Haemonchus contortus
Protocol: (§1) The selenophene and thiophene-core ligands (n = 74) (Additional file 1) were screened at a concentration of 20 μM on exsheathed third-stage larvae (xL3s) of H. contortus in 96-well microculture plates (cat. no. 3635; Corning 3650, Life Sciences, Corning, USA) using relevant control compounds (i.e. moxidectin and monepantel), as described previously. In brief, compounds were dissolved to a stock concentration of 10 mM in either dimethyl sulfoxide (DMSO) or methanol (Sigma-Adrich Scientific, St. Louis, USA). These ligands were then individually diluted to the final concentration of 20 μM using Luria Bertani medium (LB) supplemented with 100 IU/ml of penicillin, 100 μg/ml of streptomycin and 2.5 μg/ml of amphotericin (LB*). Compounds were dispensed (in triplicate) into the wells of a 96-well microculture plate using a multichannel pipette. In addition, the negative controls (LB*, LB* + 0.5 % solvent; six wells each), and positive controls (20 μM of monepantel; Zolvix, Novartis Animal Health, Basel, Switzerland and 20 μM of moxidectin; Cydectin, Virbac, Carros, France; triplicate wells) and xL3s (~300/well) were dispensed into wells of the plate using an automated multichannel pipette (Viaflo Assist/II, Integra Biosciences, Zizers, Switzerland). […], a video recording (5 s) was taken of each well of the 96-well microculture plate (containing xL3s) using a greyscale camera (Rolera Bolt CMOS, Qimaging Scientific, Surrey, Canada) and a motorised X-Y axis stage (BioPoint 2, Ludl Electronics Products, Hawthorne, USA). Individual videos were processed to calculate a motility index (MI) using an algorithm described previously. MIs were normalised to the negative and positive controls (to remove plate-to-plate variation) using the program Prism (v.6 GraphPad Software, USA). Z’-scores were calculated to validate the performance of the screening assay; reliable assays achieve Z’-scores of between 0.5 and 1 [28]. A compound was recorded as having an activity if it reduced xL3 motility by ≥ 70 % following incubation for 72 h. […] Compounds that reduced the motility of xL3s were also tested for their ability to inhibit the motility of L4s (same protocol as for xL3s) and/or to affect the development of xL3s to L4s. Following the measurement of L4 motility, larvae were re-incubated for 4 more days and fixed with 1 % iodine (50 μl). Then, L4 development was assessed based on the presence of a well-developed mouth/pharynx using a light microscope and expressed as a percentage of the total number of larvae examined (n = 30).
(§2) All assays (to assess xL3 motility, L4 development and L4 motility) were performed in triplicate, three times, on separate days.

[2] = system: fourth-stage larvae (L4s) of H. contortus; assay: L4 motility assay; format: cell-based
Protocol: as §1, with “[28].” for “[28]. A compound was recorded as having an activity if it reduced xL3 motility by ≥ 70 % following incubation for 72 h.”
as §2

[3] = Haemonchus contortus, 24 h; read-out: xL3 motility (IC50s in μM)
[4] = Haemonchus contortus, 48 h; read-out: xL3 motility (IC50s in μM)
[5] = Haemonchus contortus, 72 h; read-out: xL3 motility (IC50s in μM)
[6] = Haemonchus contortus, 24 h; read-out: L4 motility (IC50s in μM)
[7] = Haemonchus contortus, 48 h; read-out: L4 motility (IC50s in μM)
[8] = Haemonchus contortus, 72 h; read-out: L4 motility (IC50s in μM)
[9] = Haemonchus contortus, 72 h, 20 μM, 72 h; percent of motility compared with controls; mean of triplicate ± SEM; read-out: xL3 Motility Index(%)
[10] = Haemonchus contortus; 20 μM, 72 h; read-out: inhibition of xL3 motility in the primary screen

In the case of `C[C@](C#N)(COc1cc(C#N)ccc1C(F)(F)F)NC(=O)c1ccc(SC(F)(F)F)cc1` [Monepantel, reference compound], the IC50 [1, 3] is reported as roughly 52.1 µM, the IC50 [1, 4] is reported as 6 µM and the IC50 [1, 5] is reported as 0.4 µM. For the same compound, the IC50 [2, 6] was 4.3 µM, the IC50 [2, 7] was 2.2 µM and the IC50 [2, 8] was 3 µM.

For `Oc1ccc(-c2cscc2-c2ccc(O)cc2Cl)c(Cl)c1` [MJ-17], the IC50 [1, 3] was 25.7 µM, the IC50 [1, 4] was 25.6 µM and the activity at 20 µM [1, 9] was 20.6 ± 4.9%. The IC50 [1, 5] was 23.8 µM, the inhibition at 20 µM [1, 10] was greater than 70% and the IC50 ([1]; Haemonchus contortus; read-out: xL3 motility IC50 at both 48 h and 72 h) was 23.8 to 25.6 µM. It also gave an IC50 [2, 6] of 13.9 µM, an IC50 [2, 7] of 6.2 µM and an IC50 [2, 8] of 6.1 µM. The IC50 ([2]; Haemonchus contortus; read-out: L4 motility IC50 at both 48 h and 72 h) was 6.1 to 6.2 µM.

In the case of `Cc1cc(O)ccc1-c1ccc(-c2ccc(O)cc2F)s1` [MJ-22], the IC50 [1, 3] is reported as 6.6 µM, the IC50 [1, 4] is reported as 7.2 µM and the activity at 20 µM [1, 9] is reported as 6.7 ± 8.2%. It also gave an IC50 [1, 5] of 9.6 µM, an inhibition at 20 µM [1, 10] greater than 70% and an IC50 [2, 6] of 6.4 µM. The IC50 [2, 7] was 3.2 µM and the IC50 [2, 8] was 6.2 µM.

Work on `Oc1ccc(-c2ccc(-c3ccc(O)cc3Cl)[se]2)c(Cl)c1` [WZY-2] yielded an IC50 ([1]; Haemonchus contortus, 24 h, read-out: xL3 motility (IC50s in μM)) of 10 µM, an IC50 ([1]; Haemonchus contortus, 48 h, read-out: xL3 motility (IC50s in μM)) of 13 µM and an inhibition at 20 µM ([1]; Haemonchus contortus, 72 h, read-out: inhibition of xL3 motility in the primary screen) greater than 70%. It also gave an activity at 20 µM ([1]; Haemonchus contortus, 72 h, read-out: xL3 Motility Index(%), 20 μM, 72 h; percent of motility compared with controls; mean of triplicate ± SEM) of 12.3 ± 0.1%, an IC50 ([1]; Haemonchus contortus, 72 h, read-out: xL3 motility (IC50s in μM)) of 12.1 µM and an IC50 ([2]; Haemonchus contortus, 24 h, read-out: L4 motility (IC50s in μM)) of 9.3 µM. For the same compound, the IC50 ([2]; Haemonchus contortus, 48 h, read-out: L4 motility (IC50s in μM)) was 6.1 µM and the IC50 ([2]; Haemonchus contortus, 72 h, read-out: L4 motility (IC50s in μM)) was 6.2 µM.

Work on `CO/N=C1\C[C@]2(C[C@@H]3C[C@@H](C/C=C(\C)C[C@@H](C)/C=C/C=C4\CO[C@@H]5[C@H](O)C(C)=C[C@@H](C(=O)O3)[C@]45O)O2)O[C@H](/C(C)=C/C(C)C)[C@H]1C` [Moxidectin, reference compound] yielded an IC50 [1, 3] of 2.5 µM, an IC50 [1, 4] of 2.5 µM and an IC50 [1, 5] of 2.3 µM. For the same compound, the IC50 [2, 6] was 2.2 µM, the IC50 [2, 7] was 0.6 µM and the IC50 [2, 8] was 0.0045 µM.
